Measured values reported in patent publication US11364211B2, “Methods for selecting phosphatase selective and non-selective phosphatase inhibitors” (MEDICAL RESEARCH COUNCIL, priority 2015, dated 2022).

Experiments:
PPP1R15B-PP1 complex = target: T1, PPP1R15B-PP1 complex (Homo sapiens, UniProt Q5SWA1); assay: SPR steady-state binding to R15B-PP1c holophosphatase on streptavidin chip; settings: for Kd: SPR, steady-state affinity
T1 construct: 340-698 of PPP1R15B were His-tagged and cloned into pMAL-c5x; made in house; host or cells: R15B fragment: E. coli BL21-Gold; BAP-PP1γ: Sf9 insect cells (baculovirus)
T1 sequence (Q5SWA1 340-698): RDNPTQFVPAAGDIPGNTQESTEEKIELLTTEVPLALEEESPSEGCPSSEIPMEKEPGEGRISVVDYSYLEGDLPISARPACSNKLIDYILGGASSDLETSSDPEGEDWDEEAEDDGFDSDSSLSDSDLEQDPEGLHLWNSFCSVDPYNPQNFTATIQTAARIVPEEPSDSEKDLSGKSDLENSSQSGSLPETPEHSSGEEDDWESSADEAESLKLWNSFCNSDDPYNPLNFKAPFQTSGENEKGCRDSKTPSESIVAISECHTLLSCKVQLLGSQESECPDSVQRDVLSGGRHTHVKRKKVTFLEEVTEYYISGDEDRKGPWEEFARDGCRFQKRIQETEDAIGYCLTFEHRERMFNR
T1 sequence (P36873 whole entry partner, the tested form may be a part): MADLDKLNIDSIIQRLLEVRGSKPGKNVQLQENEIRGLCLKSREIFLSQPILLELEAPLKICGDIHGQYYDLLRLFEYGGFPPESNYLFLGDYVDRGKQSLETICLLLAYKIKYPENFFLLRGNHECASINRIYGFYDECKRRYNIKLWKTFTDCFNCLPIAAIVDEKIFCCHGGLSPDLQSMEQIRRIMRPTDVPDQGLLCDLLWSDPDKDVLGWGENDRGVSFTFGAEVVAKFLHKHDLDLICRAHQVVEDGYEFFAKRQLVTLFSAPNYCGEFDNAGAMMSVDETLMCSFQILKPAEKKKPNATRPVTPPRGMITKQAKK
Description: (§1) The streptavidin coated surface was activated by 1 min injection with a solution of 50 mM NaOH and 1 M NaCl. Biotin-PP1 was diluted in the running buffer (50 mM Tris pH 7.5, 100 mM NaCl, 0.1 mM EGTA, 1 mM MnCl2, 0.05% Tween 20) and injected at approximately 300 nM concentration directly to streptavidin coated surface for 100 sec or to reach immobilization level of biotin-PP1 corresponding to ˜7000 RU. A blank immobilization was performed for one of the SA sensor chip surface to use as a reference.
(§2) With minor deviations, the same procedure and conditions were used in all binding experiments. Small molecules were stored as 50 mM stock solutions in 100% DMSO. Prior to determining binding constants, serial dilutions of either 12 or 8 concentrations of the compounds were prepared in the running buffer in a 96-well plate. […] Then, without regenerating the surface, the compound dilution series was injected onto the surface of the chip Sensorgrams were analyzed using the Biacore T200 evaluation software and the binding constants determined based on a steady-state model. Kinetic experiments are carried out using different concentrations of the compound and their respective equilibrium binding levels determined.
(§3) Surface Plasmon Resonance (SPR) was used to measure the binding affinity of compounds to the PPP1R15A/B-PP1 phosphatase complex. Biotin acceptor peptide (BAP) was fused to the N-terminus of PP1γ, which enables the biotinylation of the BAP-tagged protein in Sf9 insect cells. After purification the BAP-PP1γ protein was captured on a streptavidin sensor chip (SA-chip, GE healthcare) to a response level of ˜5.000 RU. Using controlled biotinylation enables orientated and uniform immobilization on the sensor chip surface. The PP1γ was then used to capture PPP1R15A/B and form a holophosphatase complex on the surface of the streptavidin chip. This complex can then be used to test binding of compounds. 10 μM PPP1R15A/B protein concentration was used to form the holophosphatase complex during a 80 s injection. […] After the concentration series (8 or 12 concentrations) is completed the surface is regenerated with 3 M NaCl and we can capture R15A/B again to form a fresh holophosphatase complex to measure a binding of another compound concentration series. Analysing the level of equilibrium binding as a function of concentration gives interaction affinities or steady-state binding affinity (KD).
(§4) The streptavidin coated surface was activated by 1 minute injection with a solution of 50 mM NaOH and 1 M NaCl three times at a flow rate of 10 μl/min. bio-GBZ or bio-PP1c was diluted in the running buffer (50 mM Tris pH 7.5, 100 mM NaCl, 0.1 mM EGTA, 0.05% Tween 20, 0.1% DMSO) and injected at approximately 300 nM concentration at a flow rate of 10 μl/min directly to streptavidin coated surface to reach immobilization level of bio-GBZ or bio-PP1c corresponding to ˜200 and 6000 RU, respectively. A blank immobilization was performed for one of the SA sensor chip surface to use as a reference.
With minor deviations, the same procedure and conditions were used in all binding experiments. Small molecules were stored as 50 mM stock solutions in 100% DMSO. Prior to determining binding constants, serial dilutions of either 12 or 8 concentrations of the compounds were prepared in the running buffer in a 96-well plate. […] This was followed by 1 minute stabilization period, to wash off any unspecific binding. Then, without regenerating the surface, the compound dilution series was injected onto the surface of the chip at a flow rate of 30 μl/min for 1 minute, followed by 2 minutes dissociation time. After each dilution series the surface was regenerated using 3 M NaCl for 90 seconds. […] In order to be able to correct for small variations in DMSO concentration between samples, eight solvent samples ranging from 0.06 to 8% DMSO were injected every 50th cycle. The flow cell temperature was 10° C.

PPP1R15A-PP1 complex = target: T2, PPP1R15A-PP1 complex (Homo sapiens, UniProt O75807); assay: SPR steady-state binding to R15A-PP1c holophosphatase on streptavidin chip; settings: steady-state affinity
T2 construct: the cDNAs encoding amino acids 325-636 of PPP1R15A; made in house; host or cells: R15A fragment: E. coli BL21-Gold; BAP-PP1γ: Sf9 insect cells (baculovirus)
T2 sequence (O75807 325-636): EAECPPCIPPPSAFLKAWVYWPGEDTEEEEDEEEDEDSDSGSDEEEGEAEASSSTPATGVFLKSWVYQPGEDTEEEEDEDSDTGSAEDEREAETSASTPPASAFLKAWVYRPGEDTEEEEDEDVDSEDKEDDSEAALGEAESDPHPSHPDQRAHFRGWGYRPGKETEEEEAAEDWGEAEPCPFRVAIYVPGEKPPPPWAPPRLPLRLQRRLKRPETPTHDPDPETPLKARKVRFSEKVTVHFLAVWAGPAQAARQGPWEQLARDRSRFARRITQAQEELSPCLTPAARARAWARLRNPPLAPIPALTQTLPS
T2 sequence (P36873 whole entry partner, the tested form may be a part): as the sequence (P36873 whole entry partner, the tested form may be a part) above
Description: as §1, §2, §3, §4
(§5) With minor deviations, the same procedure and conditions were used in all binding experiments. Small molecules were stored as 50 mM stock solutions in 100% DMSO. Prior to determining binding constants, serial dilutions of either 12 or 8 concentrations of the compounds were prepared in the running buffer in a 96-well plate. […] This was followed by 1 minute stabilization period, to wash off any unspecific binding. […]

PP1c [1] = target: T3, PP1c (Homo sapiens, UniProt P36873); assay: SPR binding to PP1c alone immobilized on chip; settings: PP1c alone, read-out: affinity (KD) for PP1
T3 sequence (P36873 whole entry): as the sequence (P36873 whole entry partner, the tested form may be a part) above
Description: as §4
as §5, with “binding. Then, without regenerating the surface, the compound dilution series was injected onto the surface of the chip at a flow rate of 30 μl/min for 1 minute, followed by 2 minutes dissociation time.” for “binding.”
Kinetic experiments are carried out using different concentrations of the compound and their respective equilibrium binding levels determined.

PP1c [2] = target: T3, PP1c; assay: PP1c catalytic activity assay (EnzChek); format: biochemical; settings: purified PP1c 30 nM, 30 minutes at 4° C.
Description: Residual activity of PP1c was then measured using the EnzChek Phosphatase Assay Kit (Thermo Fisher Scientific) according to the supplier's instructions.

| difference in affinities between PPP1R15A-PP1 and PPP1R15B-PP1 (PPP1R15B-PP1 complex; from SPR KD values) | Kd (PPP1R15A-PP1 complex) | Compound | Kd (PPP1R15B-PP1 complex) | Kd (PP1c [1]) | inhibition of PP1c in enzymatic assay (PP1c [2]) |
| --- | --- | --- | --- | --- | --- |
| greater than 30 fold | 5 µM | N=C(N)N/N=C/c1ccc(F)cc1Cl [Example 2, (E)-2-(2-chloro-4-fluorobenzylidene)hydrazine-1-carboximidamide] | 0.143 µM |  |  |
|  | 3.93 µM | N=C(N)N/N=C/c1cc(Cl)c(Cl)c(Cl)c1 [Example 3, (E)-2-(3,4,5-trichlorobenzylidene)hydrazine-1-carboximidamide] |  |  |  |
|  |  | COC[C@@H]([C@H](O)[C@H](O)C(=O)NCC[C@H](C)c1nc(/C=C/C[C@@H]2O[C@]3(C[C@@H](O)[C@@H]2C)O[C@H]([C@H](C[C@H](O)[C@H](C)[C@H](O)[C@H](C)/C=C(C)/C(C)=C/C=C/C(C)=C\C#N)OC)[C@H](OP(=O)(O)O)C3(C)C)co1)N(C)C [calyculin A, reference compound] |  |  | a catalytic inhibitor of PP1 |

| Compound | difference in affinities between PPP1R15A-PP1 and PPP1R15B-PP1 (PPP1R15B-PP1 complex; from SPR KD values) | Kd (PPP1R15A-PP1 complex) | Kd (PPP1R15B-PP1 complex) | Kd (PP1c [1]) | inhibition of PP1c in enzymatic assay (PP1c [2]) |
| --- | --- | --- | --- | --- | --- |
| O=C(/C=C/c1ccccc1)NC(NC(=S)Nc1cccc2cccnc12)C(Cl)(Cl)Cl (centres unmarked) [Salubrinal] |  | > 20 µM | > 20 µM | > 20 µM |  |
